Reference: patent publication US7655216B2, “Vaccine for activating helper function of CD8+ Tcells” (University of Pittsburgh - Of the Commonwealth of Higher …, priority 2007, dated 2010)
Entries after “also recorded” stand apart in the source; their conditions may differ. The star is where a group is joined. Cbz = O=C(OCc1ccccc1)*; CH2F = FC*

How the values were obtained:
[1] = tested on: immature DCs co-cultured with effector-type CD8+ T cells; assay type: cell-based, human
[2] = tested on: SEB loaded DCs; assay type: cell-based, human
[3] = tested on: PI-9 in DCs; test: Intracellular PI-9 expression in DCs (flow cytometry); assay type: cell-based, human
Method: Flow cytometry. Cell surface phenotype was analyzed by flow cytometry using Beckman Coulter XL. The FITC and PE-labeled isotype controls (mouse IgG1 and IgG2a), anti-human CD86, anti-human perforin were obtained from BD Pharmingen. CD83 monoclonal antibody was purchased from Immunotech and PE-labeled Granzyme B antibody was obtained from Cell Sciences. Goat anti-mouse IgG-FITC conjugated was obtained from Caltag Laboratories. For detection of intracellular PI-9, PI-9 specific mouse monoclonal IgG1 antibody was used as described (Bladergroen et al., J. Immunol. 166:3218-3225 (2001)). Briefly, for intracellular staining of PI-9, DCs were washed and then blocked with human Ig for 10 minutes at room temperature. Subsequently, cells were permeabilized with 300 μl of Permiflow (Invirion, Frankfort, Mich.) for 60 minutes at room temperature and then washed. The cells were stained with unconjugated anti human PI-9 antibody for 20 minutes at room temperature followed by staining with FITC conjugated goat anti-mouse IgG antibody. Granzyme B and perforin staining were performed according to manufacturer's protocol, using Permiflow as permeabilization reagent. […]
Intracellular expression of PI-9 (open profiles) in DCs has been analyzed by flow cytometry before and after (15 and 120 minutes) the exposure to recombinant TNFα (50 ng/ml).

[4] = tested on: SEB-loaded DCs co-cultured with memory-type CD8+ T cells; assay type: cell-based, human
[5] = tested on: MC38 adenocarcinoma; set-up: species or system C57BL/6 mice; settings: mouse, in vivo, sc

Molecule: O=C(O)CN(CCOCCOCCN(CC(=O)O)CC(=O)O)CC(=O)O [EGTA]
- DC killing by effector-type CD8+ T cells [1]: completely eliminated

Molecule: Cbz-IETD-CH2F
- CTL-induced DC death (survival of DCs) [1]: abrogated the CTL-induced DC death

Molecule: Concanamycin A
- DC killing by effector-type CD8+ T cells [1]: completely eliminated; also recorded: abrogated their DC-killing ability
- DC activation / phenotypic maturation (CD86, CD83) [2]: enhance DC activation

Molecule: IETD-CHO
- CTL-induced DC death (survival of DCs) [1]: abrogated the CTL-induced DC death

Molecule: Infliximab
- memory-type CD8+ T cell-induced induction of PI-9 in DCs ([3]; 10 hour time point): blocks
- DC survival in co-culture with memory-type CD8+ T cells [4]: equally effective in converting the memory T cell-induced DC activation into memory T cell-induced DC death; also recorded: reduces DC survival

Molecule: KAVYNFATC [LCMVgp33-41]
- induction of MC38-specific CTL activity (killing MC38) [5]: more effective in killing MC38 than a DC vaccine loaded only with tumor antigen

Molecule: SIINFEKL [OVA257-264]
- induction of MC38-specific CTL activity (killing MC38) [5]: more effective in killing MC38 than a DC vaccine loaded only with tumor antigen

Molecule: TNFα
- induction of PI-9 in DCs ([3]; recombinant TNFα 50 ng/ml, 15 and 120 minutes): Rapid induction of PI-9
- resistance of immature DCs to CTL killing [1]: acquired resistance to CTL killing

B1: soluble TNF receptor I: recombinant human soluble TNF-RI (R&D Systems) (protein, UniProt P19438 30-211, looked up)
extracellular domain: LVPHLGDREKRDSVCPQGKYIHPQNNSICCTKCHKGTYLYNDCPGPGQDTDCRECESGSFTASENHLRHCLSCSKCRKEMGQVEISSCTVDRDTVCGCRKNQYRHYWSENLFQCFNCSLCLNGTVHLSCQEKQNTVCTCHAGFFLRENECVSCSNCKKSLECTKLCLPQIENVKGTEDSGTT
modifications: extracellular domain
- DC survival in co-culture with memory-type CD8+ T cells [4]: equally effective in converting the memory T cell-induced DC activation into memory T cell-induced DC death
